Results reported in ChEMBL document CHEMBL1149767, “Structural and biological studies of mononuclear palladium(II) complexes containing N-substituted thiosemicarbazones” (2008).

Legend:
Assay type in all cases: functional
[1] = system: Escherichia coli; experiment: Antibacterial activity against Escherichia coli assessed as diameter of inhibition zone at 0.5% after 24 hrs
[2] = system: Vibrio cholerae; experiment: Antibacterial activity against Vibrio cholerae assessed as diameter of inhibition zone at 0.5% after 24 hrs; parameters: scale not given: the % may be the effect or the level left
[3] = system: Pseudomonas aeruginosa; experiment: Antibacterial activity against Pseudomonas aeruginosa assessed as diameter of inhibition zone at 1.0% after 24 hrs
[4] = system: Vibrio cholerae; experiment: Antibacterial activity against Vibrio cholerae assessed as diameter of inhibition zone at 0.25% after 24 hrs; parameters: scale not given: the % may be the effect or the level left
[5] = system: Escherichia coli; experiment: Antibacterial activity against Escherichia coli assessed as diameter of inhibition zone at 1.0% after 24 hrs
[6] = system: Pseudomonas aeruginosa; experiment: Antibacterial activity against Pseudomonas aeruginosa assessed as diameter of inhibition zone at 2.0% after 24 hrs
[7] = system: Staphylococcus aureus; experiment: Antibacterial activity against Staphylococcus aureus assessed as diameter of inhibition zone at 1.0% after 24 hrs
[8] = system: Staphylococcus aureus; experiment: Antibacterial activity against Staphylococcus aureus assessed as diameter of inhibition zone at 2.0% after 24 hrs
[9] = system: Vibrio cholerae; experiment: Antibacterial activity against Vibrio cholerae assessed as diameter of inhibition zone at 2.0% after 24 hrs; parameters: scale not given: the % may be the effect or the level left
[10] = system: Staphylococcus aureus; experiment: Antibacterial activity against Staphylococcus aureus assessed as diameter of inhibition zone at 0.5% after 24 hrs
[11] = system: Pseudomonas aeruginosa; experiment: Antibacterial activity against Pseudomonas aeruginosa assessed as diameter of inhibition zone at 0.5% after 24 hrs
[12] = system: Vibrio cholerae; experiment: Antibacterial activity against Vibrio cholerae assessed as diameter of inhibition zone at 1.0% after 24 hrs; parameters: scale not given: the % may be the effect or the level left
[13] = system: Escherichia coli; experiment: Antibacterial activity against Escherichia coli assessed as diameter of inhibition zone at 0.25% after 24 hrs
[14] = system: Pseudomonas aeruginosa; experiment: Antibacterial activity against Pseudomonas aeruginosa assessed as diameter of inhibition zone at 0.25% after 24 hrs
[15] = system: Escherichia coli; experiment: Antibacterial activity against Escherichia coli assessed as diameter of inhibition zone at 2.0% after 24 hrs
[16] = system: Staphylococcus aureus; experiment: Antibacterial activity against Staphylococcus aureus assessed as diameter of inhibition zone at 0.25% after 24 hrs

Row | Compound | inhibition zone (IZ) [1] [mm] | Activity [2] [%] | inhibition zone (IZ) [3] [mm] | Activity [4] [%] | inhibition zone (IZ) [5] [mm] | inhibition zone (IZ) [6] [mm] | inhibition zone (IZ) [7] [mm] | inhibition zone (IZ) [8] [mm] | Activity [9] [%] | inhibition zone (IZ) [10] [mm] | inhibition zone (IZ) [11] [mm] | Activity [12] [%] | inhibition zone (IZ) [13] [mm] | inhibition zone (IZ) [14] [mm] | inhibition zone (IZ) [15] [mm] | inhibition zone (IZ) [16] [mm]
1 | Oc1ccccc1/C=N/NC(=S)Nc1ccccc1 | 7 | 6 | 7 | 4 | 8 | 9 | 8 | 9 | 9 | 6 | 5 | 8 | 5 | – | – | –
2 | CN[C@@H]1[C@H](O[C@H]2[C@H](O[C@H]3[C@H](O)[C@@H](O)[C@H](N=C(N)N)[C@@H](O)[C@@H]3N=C(N)N)O[C@@H](C)[C@]2(O)C=O)O[C@@H](CO)[C@H](O)[C@H]1O [STREPTOMYCIN] | 20 | 17 | 23 | 14 | 22 | 24 | 23 | 25 | 22 | 19 | 21 | 20 | 18 | 18 | 25 | 17
